# Molecular target: Histamine H3 receptor (Rattus norvegicus, UniProt Q9QYN8)
# Test: Binding affinity at histamine H3 receptor in rat cortical membranes by [3H]Nalpha-methylhistamine displacement.
# Assay type: cell membranes
# Sequence of Histamine H3 receptor (Q9QYN8 whole entry): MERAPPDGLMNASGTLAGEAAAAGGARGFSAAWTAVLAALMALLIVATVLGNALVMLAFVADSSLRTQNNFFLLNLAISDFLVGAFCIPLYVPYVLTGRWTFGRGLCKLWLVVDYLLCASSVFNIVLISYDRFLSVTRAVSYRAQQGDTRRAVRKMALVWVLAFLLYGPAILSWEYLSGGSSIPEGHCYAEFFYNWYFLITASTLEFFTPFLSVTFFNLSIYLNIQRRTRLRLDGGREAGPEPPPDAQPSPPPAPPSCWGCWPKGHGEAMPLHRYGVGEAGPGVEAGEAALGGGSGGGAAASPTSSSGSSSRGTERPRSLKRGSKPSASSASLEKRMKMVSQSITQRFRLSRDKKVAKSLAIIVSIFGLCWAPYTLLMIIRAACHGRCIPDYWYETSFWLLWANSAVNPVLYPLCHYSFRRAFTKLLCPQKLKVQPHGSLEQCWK
row,SMILES,Ki
1,CC(C)(C)CCC#C[C@@H]1C[C@H]1c1c[nH]cn1 [CIPRALISANT],0.12 nM
2,CCCC#CC1CC1c1c[nH]cn1 (stereo not drawn),5.1 nM
3,C(#CCCC1CCCC1)CCc1c[nH]cn1,0.9 nM
